ChEMBL document CHEMBL2413072, “Synthesis and in vitro anticancer studies of novel C-2 arylidene congeners of lantadenes” (2013)

Legend:
Type in all cases: functional
KM12 = experiment: Growth inhibition of human KM12 cells by sulforhodamine B assay
HT-29 [1] = experiment: Growth inhibition of human HT-29 cells by sulforhodamine B assay
HOP-62 [2] = experiment: Growth inhibition of human HOP62 cells by sulforhodamine B assay
K562 [3] = experiment: Growth inhibition of human K562 cells by sulforhodamine B assay
UACC-257 = experiment: Growth inhibition of human UACC257 cells assessed as cell growth at 10^-8 M by sulforhodamine B assay; details: read-out: Activity
SW-620 = experiment: Growth inhibition of human SW620 cells assessed as cell growth at 10^-8 M by sulforhodamine B assay; details: read-out: Activity
HL-60(TB) = experiment: Growth inhibition of human HL-60(TB) cells assessed as cell growth at 10^-8 M by sulforhodamine B assay; details: read-out: Activity
MDA-MB-468 [4] = experiment: Growth inhibition of human MDA-MB-468 cells by sulforhodamine B assay
PC-3 = experiment: Growth inhibition of human PC3 cells by sulforhodamine B assay
OVCAR-5 [5] = experiment: Growth inhibition of human OVCAR5 cells by sulforhodamine B assay
SK-MEL-28 = experiment: Growth inhibition of human SK-MEL-28 cells by sulforhodamine B assay
M14 [6] = experiment: Growth inhibition of human M14 cells by sulforhodamine B assay
Malme-3M = experiment: Growth inhibition of human MALME-3M cells by sulforhodamine B assay
MDA-MB-231 = experiment: Growth inhibition of human MDA-MB-231 cells assessed as cell growth at 10^-4 M by sulforhodamine B assay; details: read-out: Activity
TK-10 = experiment: Growth inhibition of human TK10 cells assessed as cell growth at 10^-4 M by sulforhodamine B assay; details: read-out: Activity
SF-268 = experiment: Growth inhibition of human SF268 cells assessed as cell growth at 10^-4 M by sulforhodamine B assay; details: read-out: Activity
HT-29 [7] = experiment: Growth inhibition of human HT-29 cells assessed as cell growth at 10^-4 M by sulforhodamine B assay; details: read-out: Activity
HOP-62 [8] = experiment: Growth inhibition of human HOP62 cells assessed as cell growth at 10^-4 M by sulforhodamine B assay; details: read-out: Activity
BT-549 [9] = experiment: Growth inhibition of human BT549 cells assessed as cell growth at 10^-6 M by sulforhodamine B assay; details: read-out: Activity
SK-OV-3 [10] = experiment: Growth inhibition of human SKOV3 cells assessed as cell growth at 10^-6 M by sulforhodamine B assay; details: read-out: Activity
SK-MEL-5 = experiment: Growth inhibition of human SK-MEL-5 cells assessed as cell growth at 10^-6 M by sulforhodamine B assay; details: read-out: Activity
M14 [11] = experiment: Growth inhibition of human M14 cells assessed as cell growth at 10^-6 M by sulforhodamine B assay; details: read-out: Activity
LOX IMVI = experiment: Growth inhibition of human LOXIMVI cells assessed as cell growth at 10^-6 M by sulforhodamine B assay; details: read-out: Activity
SNB-75 = experiment: Growth inhibition of human SNB75 cells assessed as cell growth at 10^-6 M by sulforhodamine B assay; details: read-out: Activity
[12] = Growth inhibition of human HCC2998 cells assessed as cell growth at 10^-6 M by sulforhodamine B assay; details: HCC 2998, read-out: Activity
MOLT-4 [13] = experiment: Growth inhibition of human MOLT4 cells assessed as cell growth at 10^-6 M by sulforhodamine B assay; details: read-out: Activity
BT-549 [14] = experiment: Growth inhibition of human BT549 cells assessed as cell growth at 10^-7 M by sulforhodamine B assay; details: read-out: Activity
786-0 = experiment: Growth inhibition of human 786-0 cells assessed as cell growth at 10^-7 M by sulforhodamine B assay; details: read-out: Activity
SK-OV-3 [15] = experiment: Growth inhibition of human SKOV3 cells assessed as cell growth at 10^-7 M by sulforhodamine B assay; details: read-out: Activity
OVCAR-8 = experiment: Growth inhibition of human OVCAR8 cells assessed as cell growth at 10^-7 M by sulforhodamine B assay; details: read-out: Activity
OVCAR-5 [16] = experiment: Growth inhibition of human OVCAR5 cells assessed as cell growth at 10^-7 M by sulforhodamine B assay; details: read-out: Activity
UACC-62 = experiment: Growth inhibition of human UACC62 cells assessed as cell growth at 10^-7 M by sulforhodamine B assay; details: read-out: Activity
NCI-H23 = experiment: Growth inhibition of human NCI-H23 cells assessed as cell growth at 10^-7 M by sulforhodamine B assay; details: read-out: Activity
K562 [17] = experiment: Growth inhibition of human K562 cells assessed as cell growth at 10^-7 M by sulforhodamine B assay; details: read-out: Activity
MOLT-4 [18] = experiment: Growth inhibition of human MOLT4 cells assessed as cell growth at 10^-7 M by sulforhodamine B assay; details: read-out: Activity
MDA-MB-468 [19] = experiment: Growth inhibition of human MDA-MB-468 cells assessed as cell growth at 10^-8 M by sulforhodamine B assay; details: read-out: Activity
UO-31 = experiment: Growth inhibition of human UO31 cells assessed as cell growth at 10^-8 M by sulforhodamine B assay; details: read-out: Activity
ACHN = experiment: Growth inhibition of human ACHN cells assessed as cell growth at 10^-8 M by sulforhodamine B assay; details: read-out: Activity
SK-OV-3 [20] = experiment: Growth inhibition of human SKOV3 cells assessed as cell growth at 10^-8 M by sulforhodamine B assay; details: read-out: Activity
[21] = read-out: LC50 (the source's name)
[22] = read-out: pLC50 (the source's name) (converted)

C/C=C(/C)C(=O)O[C@@H]1CC(C)(C)C[C@H]2C3=CC[C@@H]4[C@@]5(C)CC[C@H](O)C(C)(C)[C@@H]5CC[C@@]4(C)[C@]3(C)CC[C@@]12C(=O)O [Reduced Lantadene A]
GI50 (KM12; read-out: GI50): 1.35 µM | TGI (KM12; read-out: TGI): 2.93 µM | GI50 (KM12; read-out: pGI50 (converted)): 1.35 µM | TGI (KM12; read-out: pTGI (converted)): 2.95 µM | GI50 (HT-29 [1]; read-out: GI50): 2.16 µM | LC50 (50% cell kill) (HT-29 [1]; read-out: LC50): 8.77 µM | TGI (HT-29 [1]; read-out: TGI): 4.35 µM | GI50 (HT-29 [1]; read-out: pGI50 (converted)): 2.14 µM | LC50 (50% cell kill) (HT-29 [1]; read-out: pLC50 (converted)): 8.71 µM | TGI (HT-29 [1]; read-out: pTGI (converted)): 4.37 µM | GI50 (HOP-62 [2]; read-out: GI50): 1.87 µM | TGI (HOP-62 [2]; read-out: TGI): 3.55 µM | GI50 (HOP-62 [2]; read-out: pGI50 (converted)): 1.86 µM | TGI (HOP-62 [2]; read-out: pTGI (converted)): 3.55 µM | GI50 (K562 [3]; read-out: GI50): 2.64 µM | LC50 (K562 [3]; read-out: LC50): > 100 µM | TGI (K562 [3]; read-out: TGI): 30.4 µM | GI50 (K562 [3]; read-out: pGI50 (converted)): 2.63 µM | LC50 (K562 [3]; read-out: pLC50 (converted)): > 100 µM | TGI (K562 [3]; read-out: pTGI (converted)): 30.2 µM | growth at 0.01 µM (UACC-257): 93% | growth at 0.01 µM (SW-620): 99% | growth at 0.01 µM (HL-60(TB)): 106% | GI50 (MDA-MB-468 [4]; read-out: GI50): 1.68 µM | CC50 (MDA-MB-468 [4]; [21]): 7.86 µM | TGI (MDA-MB-468 [4]; read-out: TGI): 3.64 µM | GI50 (MDA-MB-468 [4]; read-out: pGI50 (converted)): 1.7 µM | CC50 (MDA-MB-468 [4]; [22]): 7.94 µM | TGI (MDA-MB-468 [4]; read-out: pTGI (converted)): 3.63 µM | GI50 (PC-3; read-out: GI50): 1.34 µM | CC50 (PC-3; [21]): 6.01 µM | TGI (PC-3; read-out: TGI): 2.84 µM | GI50 (PC-3; read-out: pGI50 (converted)): 1.35 µM | CC50 (PC-3; [22]): 6.03 µM | TGI (PC-3; read-out: pTGI (converted)): 2.82 µM | GI50 (OVCAR-5 [5]; read-out: GI50): 3.38 µM | CC50 (OVCAR-5 [5]; [21]): 45.5 µM | TGI (OVCAR-5 [5]; read-out: TGI): 8.9 µM | GI50 (OVCAR-5 [5]; read-out: pGI50 (converted)): 3.39 µM | CC50 (OVCAR-5 [5]; [22]): 45.7 µM | TGI (OVCAR-5 [5]; read-out: pTGI (converted)): 8.91 µM | GI50 (SK-MEL-28; read-out: GI50): 1.9 µM | TGI (SK-MEL-28; read-out: TGI): 4.27 µM | GI50 (SK-MEL-28; read-out: pGI50 (converted)): 1.91 µM | TGI (SK-MEL-28; read-out: pTGI (converted)): 4.27 µM | GI50 (M14 [6]; read-out: GI50): 1.81 µM | TGI (M14 [6]; read-out: TGI): 3.92 µM | GI50 (M14 [6]; read-out: pGI50 (converted)): 1.82 µM | TGI (M14 [6]; read-out: pTGI (converted)): 3.89 µM | GI50 (Malme-3M; read-out: GI50): 1.83 µM | CC50 (Malme-3M; [21]): 7.7 µM | TGI (Malme-3M; read-out: TGI): 3.75 µM | GI50 (Malme-3M; read-out: pGI50 (converted)): 1.82 µM | CC50 (Malme-3M; [22]): 7.76 µM | TGI (Malme-3M; read-out: pTGI (converted)): 3.72 µM | growth at 100 µM (MDA-MB-231): -63% | growth at 100 µM (TK-10): -69% | growth at 100 µM (SF-268): -34% | growth at 100 µM (HT-29 [7]): -64% | growth at 100 µM (HOP-62 [8]): -37% | growth at 1 µM (BT-549 [9]): 95% | growth at 1 µM (SK-OV-3 [10]): 98% | growth at 1 µM (SK-MEL-5): 83% | growth at 1 µM (M14 [11]): 89% | growth at 1 µM (LOX IMVI): 97% | growth at 1 µM (SNB-75): 76% | growth at 1 µM [12]: 101% | growth at 1 µM (MOLT-4 [13]): 89% | growth at 0.1 µM (BT-549 [14]): 100% | growth at 0.1 µM (786-0): 97% | growth at 0.1 µM (SK-OV-3 [15]): 102% | growth at 0.1 µM (OVCAR-8): 99% | growth at 0.1 µM (OVCAR-5 [16]): 103% | growth at 0.1 µM (UACC-62): 88% | growth at 0.1 µM (NCI-H23): 99% | growth at 0.1 µM (K562 [17]): 105% | growth at 0.1 µM (MOLT-4 [18]): 98% | growth at 0.01 µM (MDA-MB-468 [19]): 93% | growth at 0.01 µM (UO-31): 93% | growth at 0.01 µM (ACHN): 105% | growth at 0.01 µM (SK-OV-3 [20]): 100%
